# Measured values as given in ChEMBL document CHEMBL1201862, “PubChem BioAssay data set” (2004).
# Active and inactive are the calls of the source.
# How the values were obtained:
# Escherichia coli = assay: microbe, parasite or virus in culture
# [1] = Luminescence Cell-Based Dose Confirmation HTS to Identify Activators of 5'UTR Stem-Loop Driven Alpha-Synuclein mRNA Translation in H4 Neuroglioblastoma Cells. [Related pubchem assays: 1829 (Project Summary), 1814 (Primary HTS)]; assay type: functional
# [2] = Luminescence Cell-Based Dose Response HTS to Identify Activators of Luciferase Translation or Activity in H4 […] Cells. [Related pubchem assays: 1829 (Project Summary), 1814 (Primary HTS)]; assay type: functional
# cells = assay type: functional
# HEK293 = assay: EBV LMP1 TES2 canonical NF-kB signalling blockers – cell-based, HEK293, luciferase, cherry-pick, dose response (AID 588343); assay type: functional; settings: Homo sapiens
# [3] = target: Dual specificity protein kinase CLK1 (Homo sapiens, UniProt P49759); assay: inhibition of human CLK1 activity – biochemical, cherry-picked samples, selectivity assay for Dyrk1A inhibitor project, dose response (AID 588811)
# Vero = assay: cells; assay type: functional; settings: Chlorocebus sabaeus
# [4] = target: T1, Short transient receptor potential channel 4 (Mus musculus, UniProt Q9QUQ5); assay: calcium entry via TRPC4 opening agents – cell-based, HEK293 TRPC4/mu-opioid, Fluo-4 calcium, dose response (AID 434937); assay type: functional
# T1 sequence (Q9QUQ5 whole entry): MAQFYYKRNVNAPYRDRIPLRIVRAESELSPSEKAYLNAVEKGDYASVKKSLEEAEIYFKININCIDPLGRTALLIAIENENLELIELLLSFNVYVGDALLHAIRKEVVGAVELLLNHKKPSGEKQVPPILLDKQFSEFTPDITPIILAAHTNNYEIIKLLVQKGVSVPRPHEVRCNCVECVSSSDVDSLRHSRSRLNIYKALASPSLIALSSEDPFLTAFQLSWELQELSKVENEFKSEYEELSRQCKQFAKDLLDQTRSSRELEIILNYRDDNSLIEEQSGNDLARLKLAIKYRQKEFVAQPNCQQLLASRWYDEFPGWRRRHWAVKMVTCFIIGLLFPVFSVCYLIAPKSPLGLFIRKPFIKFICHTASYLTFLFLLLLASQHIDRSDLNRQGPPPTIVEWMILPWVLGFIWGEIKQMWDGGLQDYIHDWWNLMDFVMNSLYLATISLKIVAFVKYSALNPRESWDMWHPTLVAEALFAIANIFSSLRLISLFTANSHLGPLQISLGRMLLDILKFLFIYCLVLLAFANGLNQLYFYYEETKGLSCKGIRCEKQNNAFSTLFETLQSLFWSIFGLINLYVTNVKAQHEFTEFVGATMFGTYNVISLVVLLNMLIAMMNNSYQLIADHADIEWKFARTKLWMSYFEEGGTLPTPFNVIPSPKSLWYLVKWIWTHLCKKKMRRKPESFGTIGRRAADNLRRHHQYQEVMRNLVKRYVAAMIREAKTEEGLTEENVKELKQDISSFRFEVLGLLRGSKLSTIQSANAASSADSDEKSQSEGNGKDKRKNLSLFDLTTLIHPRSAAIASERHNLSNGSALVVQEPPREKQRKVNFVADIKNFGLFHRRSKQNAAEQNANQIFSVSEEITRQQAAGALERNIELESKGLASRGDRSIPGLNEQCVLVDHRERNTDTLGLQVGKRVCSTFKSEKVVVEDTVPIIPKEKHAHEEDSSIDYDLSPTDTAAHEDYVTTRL
# [5] = target: Delta-type opioid receptor (Homo sapiens, UniProt P41143); assay: Counterscreen for agonists of heterodimerization of the mu 1 (OPRM1) and delta 1 (OPRD1) opioid receptors: Luminescence-based cell-based high throughput dose response assay to identify agonists of OPRD1 homodimerization. [Related pubchem assays (depositor defined):AID504326, AID504355, AID504692, AID504904, AID504905]; assay type: functional
# Mu-type opioid receptor = Mu-type opioid receptor (Homo sapiens, UniProt P35372); assay: Counterscreen for agonists of heterodimerization of the mu 1 (OPRM1) and delta 1 (OPRD1) opioid receptors: Luminescence-based cell-based high throughput dose response assay to identify agonists of OPRM1 homodimerization.; assay type: functional;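 note: U2OS cells expressing OPRM1 and beta-arrestin as split beta-galactosidase partners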
# [6] = target: 5-hydroxytryptamine receptor 5A (Homo sapiens, UniProt P47898); assay: Counterscreen for agonists of OPRM1-OPRD1 heterodimerization: luminescence-based cell-based high throughput dose response assay to identify agonists of 5-hydroxytryptamine (serotonin) 5A receptor (HTR5A). [Related pubchem assays (depositor defined):AID504326, AID504355, AID504692, AID504904, AID504905]; assay type: functional
# [7] = target: T1, Short transient receptor potential channel 4; assay: block of DAMGO-driven TRPC4 calcium entry – cell-based, HEK293 TRPC4/mu-opioid, Fluo-4 calcium, dose response (AID 434942); assay type: functional;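 note: potency of inhibitors blocking the TRPC4 calcium response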
# [8] = viability of uninfected HEp-2 cells – cell-based, HTS, cytotoxicity control for RSV inhibitor project, dose response (AID 2410); assay type: functional; settings: human respiratory syncytial virus
# [9] = system: Streptococcus sp. 'group A'; assay: Streptococcus pyogenes SK(-)GAS viability under kanamycin – luminescence, BacTiterGlo, confirmation, counter-screen for streptokinase expression inhibitor project, dose response (AID 1900); assay type: functional, organism-based
# Streptokinase A = target: T2, Streptokinase A (Streptococcus pyogenes serotype M1, UniProt P10520); assay: viability-normalized secreted streptokinase activity reduction – plasminogen activation absorbance, OD405, dose response (AID 1914); assay type: functional, Streptococcus pyogenes M1 GAS;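 note: secreted streptokinase activity via plasminogen activation per viability signal from cell pellet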
# T2 sequence (P10520 whole entry): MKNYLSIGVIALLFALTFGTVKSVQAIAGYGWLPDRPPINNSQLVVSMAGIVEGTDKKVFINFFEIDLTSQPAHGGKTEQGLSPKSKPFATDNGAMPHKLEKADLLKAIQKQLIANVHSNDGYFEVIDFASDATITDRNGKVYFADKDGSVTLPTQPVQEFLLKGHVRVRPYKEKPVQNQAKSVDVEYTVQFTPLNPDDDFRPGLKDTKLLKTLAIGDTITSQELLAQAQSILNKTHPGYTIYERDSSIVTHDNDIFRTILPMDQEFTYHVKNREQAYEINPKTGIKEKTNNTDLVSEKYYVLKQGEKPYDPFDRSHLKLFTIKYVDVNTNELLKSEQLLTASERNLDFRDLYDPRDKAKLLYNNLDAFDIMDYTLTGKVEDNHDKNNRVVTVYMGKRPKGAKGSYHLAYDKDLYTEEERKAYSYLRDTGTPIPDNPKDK
# [10] = Trypanosoma cruzi growth suppression in host cells – NIH3T3 host cells, beta-gal luminescence, confirmation (AID 2044); assay type: functional, cell-based;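 note: intracellular parasites grown in NIH/3T3 mouse fibroblasts as host cells; luminescent beta-galactosidase reporter signal from transgenic T. cruzi replicating inside host cells; inhibitors lower the luminescence signal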
# [11] = NIH3T3 cell viability loss – ATP luminescence, mouse fibroblasts, counter-screen, dose response (AID 2010); assay type: functional, cell-based;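 note: cells exposed to compound for about 90 hours before reading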
# Streptococcus = assay: GAS UMAA2166 growth inhibition – luminescence, BacTiterGlo, counter-screen for streptokinase expression inhibitor project, dose response (AID 1915); assay type: functional, organism-based;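 note: potency for reduction of bacterial viability or growth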
# [12] = Luminescence Cell-Based Dose Retest to Confirm Inhibitors of Cancer Stem Cells. [Related pubchem assays (depositor defined):AID2717, AID2721]; assay type: functional; settings: Homo sapiens
# Melanocortin receptor 4 = Melanocortin receptor 4 (Homo sapiens, UniProt P32245); assay: inhibitors of MC4R cAMP signaling – cell-based, TR-FRET, biased antagonists, dose response (AID 602298); assay type: functional;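 note: antagonist potency against agonist-stimulated cAMP production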
# [13] = cAMP pathway inhibition in counterscreen cell line – TR-FRET cAMP detection, counter-screen for MC4R biased antagonist project, dose response (AID 602305); assay type: functional, cell-based;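 note: U2OS cells stimulated with forskolin near its EC80 as the cAMP inducer; potency is for inhibition of forskolin-stimulated cAMP signaling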
# H9c2 = assay: cells; assay type: functional, cell-based; settings: Rattus norvegicus, H9c2, Myocardium;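 note: confirmatory concentration-response retest of ultra-high-throughput screening hits for modulation of myocardial damage; cell death induced by hydrogen peroxide oxidative stress; compound pretreatment for 60 min then peroxide exposure for 2 h; potency is for protecting the cells against peroxide damage rather than for killing them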
# [14] = target: 26S proteasome non-ATPase regulatory subunit 14 (Homo sapiens, UniProt O00487); assay: inhibition of proteasome subunit RPN11 – biochemical, fluorescence polarization, uHTS hits, confirmation (AID 602368); assay type: functional
# [15] = target: 72 kDa type IV collagenase (Homo sapiens, UniProt P08253); assay: Dose Response validation of uHTS RPN11 inhibitor hits using a MMP-2 Fluorescence assay.; assay type: functional
# Prothrombin = Prothrombin (Bos taurus, UniProt P00735); assay: thrombin protease inhibitors – biochemical, fluorescence polarization, uHTS hits, dose response (AID 602369); assay type: functional
# [16] = NIH-3T3 fibroblast cytotoxicity, dose response, cytotoxicity control, cell-based, fluorescence, Alamar Blue, secondary assay (AID 2327); assay type: functional;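 note: NIH-3T3 mouse fibroblasts cultured with fluconazole at 8 µg/mL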
# [17] = fluconazole-exposed Candida albicans growth modulators – fluorescence, retest, confirmation (AID 2467); assay type: functional, cell-based
# [18] = target: T3, Carboxy-terminal domain RNA polymerase II polypeptide A small phosphatase 1 (Homo sapiens, UniProt Q9GZU7); assay: CTDSP1 inhibitors, concentration-response, biochemical, absorbance readout, ultra-high-throughput screen actives (AID 540297); assay type: functional
# T3 sequence (Q9GZU7 whole entry): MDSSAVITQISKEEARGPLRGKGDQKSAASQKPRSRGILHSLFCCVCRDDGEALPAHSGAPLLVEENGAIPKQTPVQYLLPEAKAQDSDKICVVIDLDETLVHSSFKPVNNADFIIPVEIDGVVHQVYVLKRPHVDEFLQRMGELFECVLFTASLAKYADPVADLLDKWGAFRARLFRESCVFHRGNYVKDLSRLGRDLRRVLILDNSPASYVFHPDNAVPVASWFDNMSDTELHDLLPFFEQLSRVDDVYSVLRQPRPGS
# [19] = target: T4, Rac GTPase-activating protein 1 (Homo sapiens, UniProt Q9H0H5); assay: blockers of MgcRacGAP-driven Rac1 GTP hydrolysis – biochemical, ADP Hunter fluorescence, primary and confirmatory, confirmation (AID 624330); assay type: functional
# T4 sequence (Q9H0H5 whole entry): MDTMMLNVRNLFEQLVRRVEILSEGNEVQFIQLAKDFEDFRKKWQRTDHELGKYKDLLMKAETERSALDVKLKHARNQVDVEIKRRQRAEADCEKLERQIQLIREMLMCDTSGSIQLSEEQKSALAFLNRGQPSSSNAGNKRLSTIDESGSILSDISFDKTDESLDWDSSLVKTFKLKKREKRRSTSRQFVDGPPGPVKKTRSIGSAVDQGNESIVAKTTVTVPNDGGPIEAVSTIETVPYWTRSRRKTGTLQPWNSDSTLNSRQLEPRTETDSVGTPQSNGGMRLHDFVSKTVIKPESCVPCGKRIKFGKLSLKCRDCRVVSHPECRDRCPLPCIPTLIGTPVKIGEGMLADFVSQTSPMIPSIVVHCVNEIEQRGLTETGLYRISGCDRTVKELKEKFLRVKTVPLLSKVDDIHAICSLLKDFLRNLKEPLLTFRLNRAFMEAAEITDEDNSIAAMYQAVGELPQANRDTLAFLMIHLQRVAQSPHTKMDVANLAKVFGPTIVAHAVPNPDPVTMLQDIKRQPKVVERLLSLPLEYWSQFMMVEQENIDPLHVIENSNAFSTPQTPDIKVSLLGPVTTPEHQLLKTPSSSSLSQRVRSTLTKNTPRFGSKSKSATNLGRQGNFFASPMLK
# Sequence of 5-hydroxytryptamine receptor 5A (P47898 whole entry): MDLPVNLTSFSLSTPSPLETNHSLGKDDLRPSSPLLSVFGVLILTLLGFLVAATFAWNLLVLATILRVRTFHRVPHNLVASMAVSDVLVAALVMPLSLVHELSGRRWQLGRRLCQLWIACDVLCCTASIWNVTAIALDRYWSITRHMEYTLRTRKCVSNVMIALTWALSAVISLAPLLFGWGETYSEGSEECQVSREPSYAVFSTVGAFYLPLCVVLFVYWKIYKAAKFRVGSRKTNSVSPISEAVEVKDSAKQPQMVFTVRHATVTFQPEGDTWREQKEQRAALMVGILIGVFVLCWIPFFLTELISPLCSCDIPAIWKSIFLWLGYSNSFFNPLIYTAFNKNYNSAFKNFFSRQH
# Sequence of Mu-type opioid receptor (P35372 whole entry): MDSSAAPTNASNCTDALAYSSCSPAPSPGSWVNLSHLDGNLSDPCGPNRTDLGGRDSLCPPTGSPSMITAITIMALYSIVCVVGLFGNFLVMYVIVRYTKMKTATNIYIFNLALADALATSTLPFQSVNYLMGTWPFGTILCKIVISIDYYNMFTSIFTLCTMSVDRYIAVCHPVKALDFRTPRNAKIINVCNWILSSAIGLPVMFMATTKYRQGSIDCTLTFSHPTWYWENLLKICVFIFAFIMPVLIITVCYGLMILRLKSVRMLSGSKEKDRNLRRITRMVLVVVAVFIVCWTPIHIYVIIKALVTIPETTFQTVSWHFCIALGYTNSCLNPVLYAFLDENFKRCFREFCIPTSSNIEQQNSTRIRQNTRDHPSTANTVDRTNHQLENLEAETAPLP
# Sequence of Delta-type opioid receptor (P41143 whole entry): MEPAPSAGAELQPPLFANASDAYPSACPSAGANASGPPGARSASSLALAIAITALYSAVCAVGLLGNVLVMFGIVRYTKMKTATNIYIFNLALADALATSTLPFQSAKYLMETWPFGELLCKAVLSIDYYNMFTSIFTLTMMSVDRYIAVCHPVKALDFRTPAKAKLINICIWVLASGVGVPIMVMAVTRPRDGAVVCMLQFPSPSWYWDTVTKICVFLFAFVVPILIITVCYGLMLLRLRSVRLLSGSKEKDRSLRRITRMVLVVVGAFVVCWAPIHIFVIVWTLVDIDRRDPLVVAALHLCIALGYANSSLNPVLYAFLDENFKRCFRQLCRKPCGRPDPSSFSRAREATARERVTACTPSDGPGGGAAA
# Sequence of Dual specificity protein kinase CLK1 (P49759 whole entry): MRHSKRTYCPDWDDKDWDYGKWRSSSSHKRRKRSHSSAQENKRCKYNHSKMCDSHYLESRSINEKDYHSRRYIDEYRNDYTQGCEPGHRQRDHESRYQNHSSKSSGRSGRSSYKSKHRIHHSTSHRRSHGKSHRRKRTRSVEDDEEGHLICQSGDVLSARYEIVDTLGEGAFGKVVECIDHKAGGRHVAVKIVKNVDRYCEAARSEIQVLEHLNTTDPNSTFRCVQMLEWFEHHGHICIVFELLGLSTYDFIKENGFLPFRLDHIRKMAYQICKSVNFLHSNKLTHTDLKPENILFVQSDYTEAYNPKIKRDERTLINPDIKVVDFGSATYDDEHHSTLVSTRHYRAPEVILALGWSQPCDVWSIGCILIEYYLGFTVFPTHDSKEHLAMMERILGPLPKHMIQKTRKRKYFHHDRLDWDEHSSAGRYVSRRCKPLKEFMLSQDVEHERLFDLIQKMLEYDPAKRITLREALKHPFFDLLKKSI
# Sequence of 26S proteasome non-ATPase regulatory subunit 14 (O00487 whole entry): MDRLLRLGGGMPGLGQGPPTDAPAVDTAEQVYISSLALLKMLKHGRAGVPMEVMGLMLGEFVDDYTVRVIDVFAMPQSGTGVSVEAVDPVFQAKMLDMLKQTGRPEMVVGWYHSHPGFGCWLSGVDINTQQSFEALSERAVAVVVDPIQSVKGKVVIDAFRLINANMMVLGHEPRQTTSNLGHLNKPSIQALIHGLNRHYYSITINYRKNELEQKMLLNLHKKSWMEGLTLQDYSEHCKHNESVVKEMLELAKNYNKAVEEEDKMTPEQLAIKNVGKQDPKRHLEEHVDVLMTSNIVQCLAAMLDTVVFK
# Sequence of 72 kDa type IV collagenase (P08253 whole entry): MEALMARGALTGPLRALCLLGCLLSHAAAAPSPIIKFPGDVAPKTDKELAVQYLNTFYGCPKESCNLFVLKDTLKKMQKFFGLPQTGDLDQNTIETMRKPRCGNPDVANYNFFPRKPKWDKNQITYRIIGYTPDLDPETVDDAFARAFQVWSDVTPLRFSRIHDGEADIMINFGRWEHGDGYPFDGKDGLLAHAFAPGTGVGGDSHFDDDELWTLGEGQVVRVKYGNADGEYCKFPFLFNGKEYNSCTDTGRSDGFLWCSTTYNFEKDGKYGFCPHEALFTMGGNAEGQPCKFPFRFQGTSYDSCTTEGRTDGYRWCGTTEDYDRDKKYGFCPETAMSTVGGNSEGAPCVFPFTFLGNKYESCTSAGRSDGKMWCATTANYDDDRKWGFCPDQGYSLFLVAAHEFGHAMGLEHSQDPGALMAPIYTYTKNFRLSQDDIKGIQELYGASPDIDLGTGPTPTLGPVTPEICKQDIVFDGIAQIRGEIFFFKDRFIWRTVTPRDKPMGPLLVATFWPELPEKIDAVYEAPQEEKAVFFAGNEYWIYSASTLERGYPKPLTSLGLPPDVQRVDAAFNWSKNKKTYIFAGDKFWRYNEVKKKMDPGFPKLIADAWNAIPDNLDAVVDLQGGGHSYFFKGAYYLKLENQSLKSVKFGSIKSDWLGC
# Sequence of Melanocortin receptor 4 (P32245 whole entry): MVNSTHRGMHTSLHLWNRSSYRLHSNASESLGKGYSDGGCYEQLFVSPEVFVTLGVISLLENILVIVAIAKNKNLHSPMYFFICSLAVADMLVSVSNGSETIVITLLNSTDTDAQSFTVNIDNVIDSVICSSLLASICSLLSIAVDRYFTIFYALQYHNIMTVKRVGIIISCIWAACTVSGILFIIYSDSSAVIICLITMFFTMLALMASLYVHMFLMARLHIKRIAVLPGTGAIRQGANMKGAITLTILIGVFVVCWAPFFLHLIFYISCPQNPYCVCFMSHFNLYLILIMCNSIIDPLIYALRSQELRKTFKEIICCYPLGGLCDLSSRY
smiles,measurement,setting,value
O=C(Nc1ccccc1Oc1ccccc1)c1ccc(Br)o1,AC50,Escherichia coli,> 380 µM (inactive)
CCc1cc2c(=O)n(C(C)C(=O)OC3CCCCC3)cnc2s1 (centres undefined),EC50,[1],105 µM (active)
same,EC50,[2],67.6 µM (active)
same,IC50,cells,17.9 µM (active)
same,AC50,Escherichia coli,54.4 µM (active)
c1csc(CNc2ncnc3ccc(-c4ccoc4)cc23)c1,AC50,HEK293,19 µM (active)
same,AC50,[3],0.00979 µM (active)
Cc1noc(CN(C)c2ncnc3ccc(-c4ccc5c(c4)OCO5)cc23)n1,AC50,[3],< 0.00195 µM (active)
N=c1n(CC(=O)c2cccc([N+](=O)[O-])c2)c2ccccc2n1Cc1ccccc1,CC50,Vero,11.2 µM (active)
COc1ccc(C(CNC(=O)/C=C/c2c(Cl)nc3ccccn23)N(C)C)cc1 (centres undefined),EC50,[4],0.473 µM (active)
same,EC50,[5],> 92.5 µM (inactive)
same,EC50,Mu-type opioid receptor,> 92.5 µM (inactive)
same,EC50,[6],> 92.5 µM (inactive)
CN(C(=O)COC(=O)CNC(=O)C12CC3CC(CC(C3)C1)C2)C1CCS(=O)(=O)C1 (centres undefined),AC50,Escherichia coli,27.2 µM (active)
COc1cccc(CC2(CO)CCCN(Cc3ccccc3-c3ccco3)C2)c1 (centres undefined),EC50,[7],1.19 µM (active)
same,EC50,[4],2.66 µM (active)
same,EC50,[5],> 92.5 µM (inactive)
same,EC50,Mu-type opioid receptor,> 92.5 µM (inactive)
same,EC50,[6],> 92.5 µM (inactive)
O=C1N(c2ccccc2C(F)(F)F)O[C@]1(c1ccccc1)C1CCCCC1,CC50,Vero,> 25 µM (active)
CC(C)C1C(c2ccccc2)N(C)C(c2ccccc2)CC1(O)c1ccccc1 (centres undefined),CC50,[8],25.3 µM (active)
same,EC50,[9],1.55 µM (active)
same,EC50,Streptokinase A,2.22 µM (active)
same,EC50,[10],2.43 µM (active)
same,EC50,[11],> 60 µM (not active)
same,EC50,Streptococcus,7.03 µM (active)
same,AC50,[12],1.9 µM (active)
same,IC50,Melanocortin receptor 4,> 64.6 µM (inactive)
same,IC50,[13],> 64.6 µM (inactive)
CN(C)C(CN=C(S)Nc1ccccc1)c1cccnc1 (centres undefined),EC50,[4],0.149 µM (active)
same,EC50,[5],> 92.4 µM (inactive)
same,EC50,Mu-type opioid receptor,> 92.4 µM (inactive)
same,EC50,[6],> 92.4 µM (inactive)
COc1ccc2o/c(=N/NC(=O)c3cccs3)c(C(N)=O)cc2c1,IC50,H9c2,> 79 µM (inactive)
same,IC50,[14],38.5 µM (active)
same,IC50,[15],> 100 µM (inactive)
same,IC50,Prothrombin,79.7 µM (active)
COc1ccc(O)c(/C=N/NC(=O)c2c(C)nnn2-c2nonc2N)c1,EC50,[16],> 150 µM (inconclusive)
same,EC50,[17],> 38 µM (not active)
same,IC50,[18],6.12 µM (active)
same,IC50,[14],13.1 µM (active)
same,IC50,[15],> 100 µM (inactive)
same,IC50,Prothrombin,54.6 µM (active)
same,IC50,[19],79.7 µM (active)
